From US20050064507A1, “Determining kinase specificity” (priority 2003, published 2005)

Test system: pPKC Ab
Test: pPKC Ab binding to peptides phosphorylated in vitro by PKC-theta
Details: for pPKC Ab Signal on peptide after exposure to PKC-theta phosphorylation: 30 minutes at 30° C. then overnight at 4° C.; for pPKC Ab Signal amount dependent on PKC phosphorylation: difference after minus without exposure
Method: Synthetic peptides chosen from those shown in Table 4 were subjected to phosphorylation by PKC-theta, Assay conditions were similar to those described herein, except that the phosphorylation reaction was for 30 minutes at 30° C. and then overnight at 4° C. The reaction mixture was applied to HB avidin-coated plates, the plates washed, and then pPKC Ab binding assayed.

Substance	pPKC Ab Signal on peptide without exposure to PKC-theta	pPKC Ab Signal on peptide after exposure to PKC-theta phosphorylation	pPKC Ab Signal amount dependent on PKC phosphorylation
76 (HVRRRRGTFKRSKLRARD) [compound 76]	0.07	1.02	0.95
121 (LRRRSLRRSNSISKSPGP) [compound 121]	0.02	1.13	1.11
